The values below are quoted from earlier work in patent US20140199405A1, “METHOD FOR TREATING CANCER BASED ON MUTATION STATUS OF K-RAS” (priority 2013, published 2014).

The test system of data set [1] is locally advanced pancreatic cancer. Particulars: patients with locally advanced pancreatic cancer.
Another data set concerns pancreatic cancer. Particulars: combination versus gemcitabine monotherapy.

Take `O=c1[nH]cc(F)c(=O)[nH]1` [5-FU, 5-fluororuracil]: in data set [1], the median overall survival is 4.2 months and the “median time to disease progression” value was 0.9 months.
On to `Nc1ccn([C@@H]2O[C@H](CO)[C@@H](O)C2(F)F)c(=O)n1` [gemcitabine], for which, in data set [1], the median overall survival is on record as 5.7 months and the “median time to disease progression” value is reported as 2.1 months. Moreover, in the data set with pancreatic cancer, the median overall survival is on record as 6.0 months and the “median progression free survival” value is 3.5 months.
